These results are taken from US7605175B2, “Inhibitors of cyclin-dependent kinases, compositions and uses related thereto” (GPC Biotech AG, priority 2001, dated 2009).

Where only a bound is given, the exact number is not on record here.

The test system of one experiment is HCT-116 cells. As to the kind of experiment: Calcein AM viability assay, HCT-116. The following applies: Homo sapiens, HCT-116, non-protein adjusted, Table 6; read-out: HCT-116 viability IC50. It counts as cell-based. As for the experimental part: The potency of Cdk inhibitors, as measured by loss of cellular viability, was determined with the Calcein AM assay (Molecular Probes). Calcein AM is a substrate of intracellular esterases, which is cleaved only in viable cells to generate a fluorescent product that can be quantified with a fluorescent plate reader. The fluorescent signal is proportional to the number of viable cells, and thus loss of signal in response to the exposure of cells to Cdk inhibitors correlates with a loss of viability. This assay can distinguish cell cycle arrest, in which cells may still by viable, from loss of viability and is thus well suited for the evaluation of Cdk inhibitors. A compound that is a potent cytotoxic, may cause significant loss of cell viability in such assay.
Cellular IC50's were determined in the human colorectal carcinoma cell line, HCT-116, and the normal human fibroblast, IMR90. Protein adjusted IC50's were also determined in HCT-116.
HCT-116 or IMR90 cells were recovered from sub-confluent plates by trypsinization and 1,000 or 4,000 cells, respectively, were plated in 24-well dishes and incubated overnight at 37° C., 5% CO2. HCT-116 cells were cultured in RPMI-1640, 10% FCS, and IMR90 cells were cultured in Minimum Essential Medium-alpha, 10% FCS. After overnight incubation to allow adherence, the media was aspirated from each well and replaced with media containing a test compound at a concentration from 0 to 250 nM, spanning a total of 7 doses. The plates were returned to the incubator and cultured for an additional 72 hours (3 days). […] After 72-hours incubation with the test compound, the cells were washed twice with 1×PBS, taking special care to remove all residual buffer.
A 5 μM Calcein AM solution was prepared by dissolving a […] aliquot of Calcein (Molecular Probes catalog # C3100) in 50 μl DMSO. After the Calcein had completely dissolved (10 minutes at room temperature), it was diluted into 10 ml PBS. Calcein/PBS (0.5 ml) was added to each well. The plates were incubated for 75 minutes at 37° C. (protected from light) and the fluorescent signal was read on a fluorescent plate reader (excitation 485/20 and emission 530/25).

The target of another experiment is T1, Cdc2/cyclin B (Homo sapiens, UniProt P06493).
T1 construct: purchased
Kind of experiment: Biochemical kinase assay Cdc2/cyclin B. The following applies: Table 6. The source says: (§1) Enzymes: Cdc2/cyclin B was obtained from commercial sources. Cdk2/his-cyclin Eshort was expressed in Sf9 cells. Cdk2/cyclin A, cdk4/cyclin D1, and cdk6/cyclin D2 were expressed in Sf9 cells. Protein kinase A (catalytic subunit, from bovine heart) and protein kinase C (mixed isozymes from rat brain) were obtained from commercial sources.
(§2) Substrates: Histone H1 was from commercial sources. GST-Rb is glutathione-S-trans-ferase fused to the N-terminal of residues 379-928 of the Rb protein.
Assays: Cdc2/cyclinB activity was determined by measuring incorporation of radio-activity from adenosine [γ-^32P]triphosphate into Histone H1 using a TCA precipitation assay. Cdc2/cyclin B kinase and Histone H1 were obtained from commercial sources. The final assay solution contained 50 mM Tris.HCl, 10 mM MgCl2, 1 mM dithiothreitol, 50 μM adenosine triphosphate, 2 μCi ^32P, 10% dimethylsulfoxide (from compounds), pH 7.5, 20 μg Histone H1, 6 U enzyme in a 50 μL volume. Compounds were added at various concentrations between 1 nM and 10 μM. The reaction was started with the addition of enzyme, allowed to proceed for 20 min at 30° C., and stopped by the addition of 20 μL of stop solution (237 mM disodium ethylenediamine tetraacetate, 105 mM adenosine triphosphate, pH 8.0). The protein was precipitated by the addition of 35 μL 70% (w/v) trichloroacetic acid, and the precipitate was captured on a 96-well glass fiber filter plate (Millipore, Inc.), which had been wet with 25% (w/v) trichloroacetic acid. The filter was washed ten times with 25% (w/v) trichloroacetic acid, and the amount of incorporated ^32P was determined by scintillation counting after adding 100 μL scintillant (Microscint 20, Packard Instruments). Relative activity was determined by dividing the amount of radioactivity incorporated in the presence of compound by the amount of radioactivity incorporated in a control experiment containing DMSO alone but no compound. The background radioactivity, determined in an experiment containing 50 mM EDTA in place of compound, was subtracted from all results before calculations.

Another experiment deals with T2, Cdk4/cyclin D1 (Homo sapiens, UniProt P11802).
T2 construct: made in house; host or cells: Sf9 insect cells
As to the kind of experiment: Biochemical kinase assay Cdk4/cyclin D1. As to conditions: Table 6.
Description: as §1, §2
(§3) Cdk2/cyclin E, Cdk2/cyclin A, Cdk4/cyclin D1, and Cdk6/cyclin D2 activity was determined using a glutathione-sepharose capture assay. The enzymes were expressed in Sf9 insect cells as heterodimers, and the substrate (GST-Rb) was glutathione-S-transferase fused to residues 379 to 928 of Rb retinoblastoma protein, expressed in E. coli. The assay solution contained 50 mM Tris.HCl, 10 mM MgCl2, 1 mM dithiothreitol, 50 μM adenosine triphosphate, 2 μCi [γ-^33P]adenosine triphosphate, 10% dimethylsulfoxide (from compounds), pH 7.5, 40 μg GST-Rb, and enzyme in a 100 μL volume. Compounds were added at various concentrations between 1 nM and 10 μM. The reaction was allowed to proceed for 15 min at 30° C. and was stopped by the addition of 70 μL of stop solution (237 mM disodium ethylene-diamine tetraacetate, 105 mM adenosine triphosphate, pH 8.0). The GST-Rb was captured by binding to glutathione-sepharose bead (Amersham) for 110 min, and the suspension was filtered through a glass fiber filter. After washing the retained beads five time with phosphate-buffered saline containing 0.3% (w/v) Tween-20, the amount of ^33P incorporated was determined by scintillation counting after adding 100 μL scintillant. Relative activity was determined by dividing the amount of radioactivity incorporated in the presence of compound by the amount of radioactivity incorporated in a control experiment containing DMSO alone but no compound. The background radioactivity, determined in an experiment containing 50 mM disodium ethylenediamine tetraacetate in place of compound, was subtracted from all results before calculations.

The target of the next experiment is T3, Cdk2/cyclin E (Homo sapiens, UniProt P24941).
T3 construct: made in house; host or cells: Sf9 insect cells
Kind of experiment: Biochemical kinase assay Cdk2/cyclin E. The following applies: Table 6.
Description: as §1, §2, §3

T1 sequence (P06493 whole entry, species assumed): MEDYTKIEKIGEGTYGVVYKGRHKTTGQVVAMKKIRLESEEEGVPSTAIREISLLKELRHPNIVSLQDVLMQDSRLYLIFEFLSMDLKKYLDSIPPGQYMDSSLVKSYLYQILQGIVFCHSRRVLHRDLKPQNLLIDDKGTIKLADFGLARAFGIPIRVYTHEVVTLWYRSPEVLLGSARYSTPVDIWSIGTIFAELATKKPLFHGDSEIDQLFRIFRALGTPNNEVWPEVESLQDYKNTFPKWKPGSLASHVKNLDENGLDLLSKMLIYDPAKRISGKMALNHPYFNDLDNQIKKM
T1 sequence (P14635 whole entry partner, species assumed): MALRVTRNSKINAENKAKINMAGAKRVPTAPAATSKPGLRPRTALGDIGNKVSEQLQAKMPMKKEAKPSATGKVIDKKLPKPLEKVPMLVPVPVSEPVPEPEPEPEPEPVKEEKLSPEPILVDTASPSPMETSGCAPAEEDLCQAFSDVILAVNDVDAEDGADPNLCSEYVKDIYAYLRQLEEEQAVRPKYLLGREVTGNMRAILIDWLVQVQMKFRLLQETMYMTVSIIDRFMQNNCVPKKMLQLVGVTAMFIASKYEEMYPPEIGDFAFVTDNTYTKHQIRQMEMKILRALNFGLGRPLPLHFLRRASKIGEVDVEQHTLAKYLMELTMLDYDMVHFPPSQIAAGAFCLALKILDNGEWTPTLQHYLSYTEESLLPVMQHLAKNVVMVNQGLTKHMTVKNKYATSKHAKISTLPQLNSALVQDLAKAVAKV
T2 sequence (P11802 whole entry, species assumed): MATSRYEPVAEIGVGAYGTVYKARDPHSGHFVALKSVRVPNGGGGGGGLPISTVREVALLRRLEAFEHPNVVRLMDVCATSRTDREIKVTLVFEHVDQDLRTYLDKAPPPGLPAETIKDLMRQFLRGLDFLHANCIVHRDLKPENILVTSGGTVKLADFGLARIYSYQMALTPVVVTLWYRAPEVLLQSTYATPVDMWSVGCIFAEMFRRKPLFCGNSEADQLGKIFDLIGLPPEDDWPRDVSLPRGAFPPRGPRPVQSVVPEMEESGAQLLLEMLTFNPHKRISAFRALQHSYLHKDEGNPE
T2 sequence (P24385 whole entry partner, species assumed): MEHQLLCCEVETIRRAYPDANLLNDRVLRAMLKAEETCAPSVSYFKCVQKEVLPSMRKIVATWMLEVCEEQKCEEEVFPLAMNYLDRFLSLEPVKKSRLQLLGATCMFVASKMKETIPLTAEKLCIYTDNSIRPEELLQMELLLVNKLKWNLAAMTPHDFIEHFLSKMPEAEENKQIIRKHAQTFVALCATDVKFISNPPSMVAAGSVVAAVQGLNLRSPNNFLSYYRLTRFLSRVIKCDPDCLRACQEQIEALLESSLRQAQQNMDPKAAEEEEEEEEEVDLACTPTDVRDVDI

In the case of `CC(C)c1nn(-c2c(Cl)cc(Cl)cc2Cl)c2nc(Cc3ccc(OCCN4CCN(C(C)C)CC4)cc3)[nH]c(=O)c12` [Compound A1], the IC50 (commonly the midpoint of a concentration-inhibition curve) in the experiment on HCT-116 cells was less than 100 nM; against Cdc2/cyclin B, less than 100 nM; against Cdk4/cyclin D1, less than 1000 nM; against Cdk2/cyclin E it was less than 10 nM.

For the compound `CC(C)c1nn(-c2c(Cl)cccc2Cl)c2nc(Cc3ccc(OCCN4CCOCC4)cc3)[nH]c(=O)c12` [Compound A2], the half-maximal inhibitory concentration (IC50) is less than 100 nM with HCT-116 cells, less than 1000 nM against Cdc2/cyclin B, less than 10000 nM against Cdk4/cyclin D1 and less than 10 nM at Cdk2/cyclin E.

Take `CC(C)c1nn(-c2c(Cl)cccc2Cl)c2nc(Cc3ccc(O)cc3)[nH]c(=O)c12` [Compound A4]: the concentration for half-maximal inhibition (IC50) was less than 100 nM in the experiment on HCT-116 cells, less than 100 nM at Cdc2/cyclin B, less than 100 nM on Cdk4/cyclin D1 and less than 10 nM on Cdk2/cyclin E.

As for `CC(C)c1nn(-c2c(Cl)cccc2Cl)c2nc(Cc3ccc(O)c(CN4CCOCC4)c3)[nH]c(=O)c12` [Compound A5], the IC50 was less than 100 nM with HCT-116 cells, less than 1000 nM against Cdc2/cyclin B, less than 10000 nM against Cdk4/cyclin D1 and less than 100 nM on Cdk2/cyclin E.

Turning to `CC(C)c1nn(-c2c(Cl)cccc2Cl)c2nc(Cc3ccc(NS(=O)(=O)CCCN4CCOCC4)cc3)[nH]c(=O)c12` [Compound A30], the 50% inhibitory concentration (IC50) in the experiment on HCT-116 cells was less than 100 nM; against Cdc2/cyclin B, less than 1000 nM; on Cdk4/cyclin D1, less than 1000 nM; against Cdk2/cyclin E, less than 100 nM.

`CC(C)c1nn(-c2c(Cl)cc(Cl)cc2Cl)c2nc(Cc3ccc(CN4CCN(C(C)C)CC4)n3C)[nH]c(=O)c12` [Compound A42]: the IC50 with HCT-116 cells was less than 100 nM; against Cdc2/cyclin B it was less than 1000 nM; against Cdk4/cyclin D1 it was less than 1000 nM; against Cdk2/cyclin E, less than 100 nM.

For the compound `CC(C)c1nn(-c2c(Cl)cc(Cl)cc2Cl)c2nc(Cc3ccc(CN4CCCC4)n3C)[nH]c(=O)c12` [Compound A43], the IC50 with HCT-116 cells was less than 100 nM; on Cdc2/cyclin B it was less than 1000 nM; at Cdk4/cyclin D1, less than 1000 nM; on Cdk2/cyclin E, less than 100 nM.

Consider `CC(C)c1nn(-c2c(Cl)cc(Cl)cc2Cl)c2nc(Cc3ccc(NS(=O)(=O)CCCN4CCCCC4)cc3)[nH]c(=O)c12` [Compound A48], for which the values for the IC50 in the experiment with HCT-116 cells, against Cdc2/cyclin B and against Cdk2/cyclin E were less than 100 nM, less than 1000 nM and less than 100 nM, respectively.

For `CC(C)c1nn(-c2c(Cl)cccc2Cl)c2nc(Cc3ccc(CN4CCN(C(C)C)CC4)c(O)c3)[nH]c(=O)c12` [Compound A50], the half-maximal inhibitory concentration (IC50) was less than 100 nM in the experiment with HCT-116 cells, less than 1000 nM against Cdc2/cyclin B and less than 100 nM against Cdk2/cyclin E.

On to `CC(C)c1nn(-c2c(Cl)cccc2Cl)c2nc(Cc3ccc(C(=O)NOCCN4CCOCC4)cc3)[nH]c(=O)c12` [Compound A52], for which the IC50 was less than 100 nM in the experiment on HCT-116 cells, less than 1000 nM against Cdc2/cyclin B, less than 1000 nM on Cdk4/cyclin D1 and less than 100 nM at Cdk2/cyclin E.

Regarding `CCN1CCN(S(=O)(=O)c2cc(Cl)c(-n3nc(C(C)C)c4c(=O)[nH]c(Cc5ccc(OCCN6CCOCC6)cc5)nc43)c(Cl)c2)CC1` [Compound A53], the half-inhibitory concentration (IC50) is less than 10 nM with HCT-116 cells, less than 1000 nM against Cdc2/cyclin B, less than 10000 nM against Cdk4/cyclin D1 and less than 1000 nM against Cdk2/cyclin E.

As to `CC(C)c1nn(-c2c(Cl)cc(S(N)(=O)=O)cc2Cl)c2nc(Cc3ccc(OCCN4CCOCC4)cc3)[nH]c(=O)c12` [Compound A54], the concentration for half-maximal inhibition (IC50) was less than 100 nM with HCT-116 cells, less than 10 nM on Cdc2/cyclin B, less than 1000 nM against Cdk4/cyclin D1 and less than 10 nM at Cdk2/cyclin E.

With `CCN(CCO)S(=O)(=O)c1cc(Cl)c(-n2nc(C(C)C)c3c(=O)[nH]c(Cc4ccc(OCCN5CCOCC5)cc4)nc32)c(Cl)c1` [Compound A55], the half-maximal inhibitory concentration (IC50) is less than 100 nM in the experiment on HCT-116 cells, less than 100 nM against Cdc2/cyclin B, less than 10000 nM against Cdk4/cyclin D1 and less than 100 nM on Cdk2/cyclin E.

`CC(C)c1nn(-c2c(Cl)cccc2Cl)c2nc(Cc3ccc(OCCOP(=O)(O)O)cc3)[nH]c(=O)c12` [Compound A62]: the IC50 in the experiment on HCT-116 cells is less than 100 nM; on Cdc2/cyclin B it was less than 100 nM; against Cdk4/cyclin D1, less than 10000 nM; against Cdk2/cyclin E, less than 100 nM.

In the case of `CC(C)c1nn(-c2c(Cl)cccc2Cl)c2nc(Cc3ccc(OCC(C)(C)O)cc3)[nH]c(=O)c12` [Compound A63], the IC50 in the experiment with HCT-116 cells was less than 100 nM; against Cdc2/cyclin B, less than 100 nM; on Cdk4/cyclin D1 it was less than 1000 nM; against Cdk2/cyclin E, less than 100 nM.

On to `COCCOc1ccc(Cc2nc3c(c(C(C)C)nn3-c3c(Cl)cccc3Cl)c(=O)[nH]2)cc1` [Compound A66], for which the half-maximal inhibitory concentration (IC50) is less than 100 nM in the experiment with HCT-116 cells, less than 100 nM at Cdc2/cyclin B, less than 10000 nM against Cdk4/cyclin D1 and less than 100 nM on Cdk2/cyclin E.

In the case of `CC(C)N1CCN(C(=O)COc2ccc(-c3[nH]nc4c3C(=O)c3c(NC(=O)NN5CCOCC5)cccc3-4)cc2)CC1` [Compound A76], the 50% inhibitory concentration (IC50) in the experiment with HCT-116 cells, against Cdc2/cyclin B, on Cdk4/cyclin D1 and at Cdk2/cyclin E was less than 100 nM throughout.
